Assay results taken from paper PMC6781285, “Brain Delivery of a Potent Opioid Receptor Agonist, Biphalin during Ischemic Stroke: Role of Organic Anion Transporting Polypeptide (OATP)” (Pharmaceutics, 2019).

What was measured:
iPSC-BMECs = assay: Biphalin uptake studies in iPSC-BMECs; type: in vitro ADME, human
Description: (§1) We measured the level of biphalin in cell lysate (uptake studies) and transport buffer (transport studies) while using our developed, highly sensitive LC-MS/MS method. Briefly, biphalin was extracted from the samples by the addition of acetonitrile (1:2) containing 10 ng/mL internal standard, [D-Ala^2] Leucine Enkephalin (Sigma-Aldrich, St. Louis, MO, USA). After 1-min. vortexing, the mixture is centrifuged at 10,000 rpm for 10 min. After that the supernatant is mixed with an equivalent volume of LCMS water and then loaded into the insert vials ready for the analysis. The UHPLC-MS/MS system equipped with AB SCIEX QTRAP® 5500 mass spectrometer (Foster City, CA, USA) attached to a Nexera ultra high performance liquid chromatography (UHPLC) system from Shimadzu Corporation (Columbia, MD, USA) was used. Data acquisition and quantification were performed by Analyst software 1.7.0.
(§2) Chromatographic separation was then performed with a Kinetex C18 column (50 × 2.1mm, 1.8 μm, Phenomenex, Torrance, CA, USA) while using mobile phases, 0.1% formic acid in water and 0.1% formic acid in acetonitrile. The gradients of acetonitrile (10% at time zero, 31% at 2.5 min., 90% at 2.6 min. up to 3.6, followed by 10% at 3.7 min. up to 4.5 min.) were used to elute biphalin at a flow rate of 0.4 mL/min. Column temperature was maintained at 45 °C. The retention time of biphalin was ∼1.8 min. while the retention time for the internal standard (IS) was ∼2.2 min. Multiple reaction monitoring was conducted in […], and the transitions for biphalin and internal standard were 455.2 → 136.2 m/z and 570.3 → 120.3 m/z, respectively. The collision energy for biphalin and IS was 40 and 45 volts, respectively.
Differentiated BMECs (iPSC-BMECs) are seeded in 12-well plates, incubated with either biphalin (10 µg/mL) (control) or pre-incubated with OATP1 substrate, estrone-3-sulfate (E3S) (10 µM) for 10 min., followed by co-incubation of E3S and 10 µg/mL biphalin in the 37 °C incubator for 20 min. The incubation time, 20 min. was selected to get detectable amount of biphalin in the cell extract. Next, the cells are washed two times with ice-cold phosphate buffered saline (PBS, pH 7.4). The cells were solubilized with 100 µL radioimmunoprecipitation assay (RIPA) Buffer (Thermo Fisher, Waltham, MA, USA) with protease and phosphatase inhibitor cocktail (Thermo Fisher, Waltham, MA, USA), and the amount of biphalin uptake was determined by using the above LCMS method. Protein content was calculated with a detergent-compatible bicinchoninic acid (BCA) assay (Pierce Chemical, Rockford, IL, USA). Biphalin uptake was normalized while using protein content and then presented as biphalin (ng) per µg of protein.
In vitro stroke conditions were simulated by exposing the cells to oxygen-glucose deprivation (OGD) conditions. Briefly, iPSC-BMECs were rinsed twice with Dulbecco’s Modified Eagle medium Solution (DMEM). The cells were incubated with DMEM media (without glucose) plus 1% of PDS [33]. Hypoxia (1% oxygen) was induced by placing the cells in a hypoxic polymer glove box (Coy Laboratories, Grayslake, MI, USA), which was infused with 95% N2 and 5% CO2 at 37 °C. Cells were exposed to OGD condition for 1 h, 2 h, and 6 h, followed by reperfusion with OGD media with glucose and sodium pyruvate. For reperfusion studies, the cells were incubated in the CO2 incubator for pre-determined timepoints, 30 min., 1 h, 2 h, and 6 h.

[1] = cited from earlier work
Text: Our lab has communicated several studies that reported the neuroprotective potential of biphalin, an ultra-potent, non-selective, opioid agonist, in models of both permanent and transient ischemic stroke.

iPSC-BMECs monolayer = assay: Biphalin transcellular transport across iPSC-BMECs monolayer (transwell in vitro BBB model); type: in vitro ADME, human
Description: as §1, §2
(§3) Transport studies were performed to determine the role of OATP1 on the blood-to-brain transport of biphalin. Confluent iPSC-BMECs, (one million cells/insert) were seeded to the apical side of a 12-well transwell insert (area 1.12 cm^2, polyester), which is pre-coated with 400 µg/mL collagen and 100 µg/mL fibronectin [35]. 10 µg/mL biphalin and an equivalent concentration of FITC-dextran (4kD) were added to the apical compartment. For studies using an inhibitor and OATP1 substrate, E3S was pre-incubated for 30 min., followed by incubation with biphalin and E3S [11]. E3S was added to both the luminal and abluminal sides to inhibit the transporters on both sides. The results were expressed as a net permeability coefficient (PC) after subtracting the PC of FITC-dextran from the PC of biphalin.
(§4) In vitro stroke conditions were simulated by exposing the cells to oxygen-glucose deprivation (OGD) conditions. […] For reperfusion studies, the cells were incubated in the CO2 incubator for pre-determined timepoints, 30 min., 1 h, 2 h, and 6 h.

OATP1 = assay: as above; type: in vitro ADME, human; conditions: human; normoxic; E3S pre-incubated 30 min, both luminal and abluminal sides, then biphalin 10 µg/mL plus E3S; A-B; corrected for FITC-dextran 4 kD; LC-MS/MS; mean ± SD, n = 4; read-out: net permeability coefficient (PC) of biphalin, apical to basolateral, with E3S (converted)
Description: as §1, §2, §3, §4

## C[C@@H](NC(=O)[C@@H](N)Cc1ccc(O)cc1)C(=O)NCC(=O)N[C@@H](Cc1ccccc1)C(=O)NNC(=O)[C@H](Cc1ccccc1)NC(=O)CNC(=O)[C@@H](C)NC(=O)[C@@H](N)Cc1ccc(O)cc1 [biphalin]
iPSC-BMECs; 2 h OGD + 6 h reperfusion, LC-MS/MS, mean ± SD, n = 4
  biphalin uptake: 2.5 ± 0.2 ng/µg
iPSC-BMECs; 6 h OGD + 30 min reperfusion, LC-MS/MS, mean ± SD, n = 4
  biphalin uptake: 2 ± 0.25 ng/µg
iPSC-BMECs; 6 h OGD + 6 h reperfusion
  biphalin uptake: decreased to the basal normoxic level
iPSC-BMECs; after 1 h OGD, biphalin 10 µg/mL, 20 min, LC-MS/MS, mean ± SD, n = 4
  biphalin uptake: 1.31 ± 0.2 ng/µg
iPSC-BMECs; after 2 h OGD exposure (1% oxygen, no glucose), n = 4
  increase of biphalin uptake compared to normoxic conditions: 2.8 fold
iPSC-BMECs; after 2 h OGD, biphalin 10 µg/mL, 20 min, LC-MS/MS, mean ± SD, n = 4
  biphalin uptake: 1.89 ± 0.015 ng/µg
iPSC-BMECs; after 6 h OGD exposure (1% oxygen, no glucose), n = 4
  increase of biphalin uptake compared to normoxic conditions: 2.4 fold
iPSC-BMECs; after 6 h OGD, biphalin 10 µg/mL, 20 min, LC-MS/MS, mean ± SD, n = 4
  biphalin uptake: 1.64 ± 0.15 ng/µg
iPSC-BMECs; average over selected OGD and OGD-reperfusion timepoints (2 h OGD, 6 h OGD, 2 h OGD + 6 h R, 6 h OGD + 30 min R), n = 3
  average reduction of biphalin uptake by E3S pre-incubation: 26.59 ± 8.01%
iPSC-BMECs; normal (normoxic) conditions, E3S 10 µM
  reduction of biphalin uptake by E3S: approximately 23%
iPSC-BMECs; normoxic, without E3S, biphalin 10 µg/mL, 20 min, 37 °C, cell lysate (RIPA), LC-MS/MS, normalized to protein (BCA), mean ± SD, n = 4
  biphalin uptake: 0.49 ± 0.05 ng of biphalin per 1 ug of protein
iPSC-BMECs; normoxic, E3S (OATP1 substrate) 10 µM pre-incubated 10 min, then co-incubated with biphalin 10 µg/mL 20 min, 37 °C, LC-MS/MS, mean ± SD, n = 4
  biphalin uptake with E3S: 0.37 ± 0.05 ng/ug protein
[1]
  injected dose accumulated in the brain: 0.05%
iPSC-BMECs monolayer; A-B, average over OGD and OGD-reperfusion timepoints, E3S pre-treated 30 min, n = 3
  average reduction of biphalin transport in the presence of E3S: 37.96 ± 12.51%
iPSC-BMECs monolayer; B-A, to determine the role of P-gp or other efflux mechanisms, data not shown
  transport of biphalin from basolateral to apical side (B to A): negligible
iPSC-BMECs monolayer; normal (normoxic) conditions, A-B, E3S pre-incubated 30 min
  reduction of biphalin transport by E3S: ~40%
OATP1
  Papp A→B at 10 µg/mL: 5.67 ×10⁻⁶ cm/s
